# Reference: US20200009029A1, “COSMETIC COMPOSITION COMPRISING WATER DEPLETED IN 2H AND 18O ISOTOPS” (MEDENA AG, priority 2016, published 2020)
# What was measured:
# [1] = Superoxide scavenging activity (antioxidant capacity), superoxide dismutase dependent reduction of cytochrome c; assay type: biochemical
# [2] = Stability of verbascoside in merystem cell homogenate / carboxyl methyl cellulose mixture over thirty days (HPLC); assay type: physicochemical; settings: 0.1 weight-% carboxyl methyl cellulose, initial 100 μM, darkness, 25° C., 30 days
# Experimental: Merystem plant cells containing highly oxydisable active principles such as polyphenols (in this example verbascoside) were homogenized in ^18O and ^2H depleted (De-O,D) water having a concentration of 99.894 weight-% (and for comparison in distilled natural water). A hydrogel-forming substance, namely carboxyl methyl cellulose was added to the solutions in a concentration of 0.1 weight-%. The final concentration of verbascoside in the mixture was determined to be 100 μM by HPLC method using chromatographic standard of verbascoside. This concentration corresponds to 6 mg/100 ml or 0.006 weight-%. The maximum of the absorbance spectrum was obtained at 278 nm and retention time 15.65 min. The mixture was left in darkness at room temperature (25° C.) for thirty days. After this period, the mixture was analyzed for the presence and concentration of verbascoside.
smiles,measurement,setting,value
C[C@@H]1O[C@@H](O[C@@H]2[C@@H](O)[C@H](OCCc3ccc(O)c(O)c3)O[C@H](CO)[C@H]2OC(=O)/C=C/c2ccc(O)c(O)c2)[C@H](O)[C@H](O)[C@H]1O [verbascoside],superoxide scavenging activity (antioxidant capacity),"[1]; mixture in natural water, day 30",not measurable
same,superoxide scavenging activity (antioxidant capacity),"[1]; mixture with De-O,D water, carboxy methyl cellulose and merystem cell homogenate, to day 30",remained practically unchanged
same,superoxide scavenging activity (antioxidant capacity),"[1]; mixtures of Example 1, day 0",possessed superoxide scavenging activity
same,presence and concentration of verbascoside after thirty days (HPLC),"[2]; mixture in 18O and 2H depleted (De-O,D) water",retained practically the initial levels
same,presence and concentration of verbascoside after thirty days (HPLC),[2]; mixture in distilled natural water,did not contain any measurable amounts
